Values joined by “and” are separate entries in the source; they are usually repeats but may differ in a detail not shown here. Equal values may be shown once.
Key:
[1] = test system: BT549 xenografts; assay: BT549 xenograft formation; format: in vivo, nude mice
Protocol: Twenty nude mice were injected s.c. with BT549 cells. […] Six out of eight DMSO-treated mice developed xenografts later.

[2] = test system: U-87 MG glioblastoma multiforme cells; assay: Caspase 3/7 activation assay, U-87 MG; format: cell-based; settings: 2.5 or 5 μM, 16 hours
Protocol: (§1) The apoptosis was measured by Caspase-Glo® 3/7 assay (Promega) following the manufacturer's protocol. The cells were plated in 6-well tissue culture dish (10^4 cells/well) (BD Falcon) in respective media. […] The blank reactions were prepared per direction. Equal volume of Caspase-Glo® 3/7 reagents were applied to each well. A luminometer (Sirius) was used to quantitate luminescence.

[3] = test system: MDA-MB468 cells; assay: Mammosphere formation; format: cell-based, human; settings: 2.5 μM, 11 days
Protocol: For in vitro mammosphere culture, ˜5000 MDA-MB468 cells/well were seeded into a Ultra-low Adherent 6-well plate (Stem Cell Technologies) with 2 ml/well fresh complete MammoCult™ medium (Stem Cell Technologies) containing the MammoCult® Basal Medium, MammoCult® Proliferation Supplement, 4 μg/ml Heparin (Stem Cell Technologies) and fresh 0.48 μg/ml Hydrocortisone. Cells were incubated in a 5% CO2 incubator at 37° C. for 7-11 days. […] Each treatment was done in triplicate.

[4] = test system: BT549 cells; assay: Trypan blue exclusion viability assay, BT549; format: cell-based, human
Protocol: (§2) To prepare TopBP1 knockdown stable cell line, MDA-MB468 cells were infected with lentivirus expressing TopBP1 shRNA (Liu et al. 2011) as well as scramble shRNA, separately. The infected cells were grown for 48 h followed by selection with puromycin (2 μg/ml). After selection, the knockdown was confirmed by Western blotting before further experiments. Two different pLKO-shTopBP1 (#1 and #2) constructs (Open Biosystems, RHS4533-NM_007027) were used to deplete TopBP1 in MDA-MB468 cells. Additional two pSuper-shTopBP1 constructs (Liu et al. 2004) were used to knock down TopBP1 in HEK293 cells. Two pSuper-shE2F1 constructs were used to deplete E2F1: shE2F1#1 (described previously (Liu et al. 2004)), and shE2F1#2 (target sequence 5′-[…]-3′). The target sequence for pSuperior-shE2F1 is the same as pSuper-shE2F1#1. To deplete p63, shp63alpha pLKO.1-puro (from Addgene, 19120) was used. TP73 MISSION shRNA (shp73 pLKO.1-puro) was purchased from Sigma (TRCN00002722587).

[5] = test system: BT549; settings: NCI-DTP database; cited from earlier work
[6] = test system: HEK293 cells; assay: Caspase-Glo 3/7 activity assay, HEK293; format: cell-based, human; settings: 2.5 μM overnight
Protocol: as §1, §2

[7] = test system: rats; settings: cited from earlier work
[8] = test system: MCF10A cells; assay: MTS assay, MCF10A; format: cell-based, human; settings: co-treated with doxorubicin, Calcein AM 2.5 μM, 5 h
Protocol: (§3) Then 50 μl of MTS reagent (CellTiter 96® AQueous One Solution Cell Proliferation Assay, Promega) was added to each well, covered from light and incubated for 1 h at 37.0 incubator to develop purple color. The samples were measured at 490 nm in a plate reader (BioTek Synergy HT) against a blank 48-well plate. Each assay was done in triplicate.

[9] = test system: MDA-MB468 cells; assay: Colony formation assay; format: cell-based, human; settings: 16 h treatment, then 8 days without drug
Protocol: MDA-MB468 cells were plated in 6-well plates at 200 cells/well. […] Cells were grown in fresh media without drugs for additional 8 days to form colonies, when each colony contained more than 50 cells. Plates were then stained with […] crystal violet (0.5 g Crystal violet, 25 ml methanol and 75 ml H2O). Cell number was counted.

[10] = test system: mice (intestinal tissues); assay: Tolerability and acute toxicity in proliferating tissues after i.p. injection; format: in vivo
[11] = test system: MDA-MB468 xenografts; assay: MDA-MB468 xenograft model; format: in vivo, nude mice
Protocol: Female nu/nu mice (4-5 weeks old) were purchased from Charles River Laboratories (Cambridge, Mass.). The animals were cared for and maintained by the Animal Care and Use Committee of Baylor College of Medicine. Freshly grown MDA-MB468 breast cancer cells [(8×10^6) cells per site in 100 μl phosphate-buffered saline (PBS)] were injected subcutaneously into the right side of the flank of the 5-6 weeks old mice. When tumors were measurable, the mice were randomly divided into treatment and control groups. […] The control group mice were injected with vehicle (DMSO) in the same way. The mice were monitored thrice per week. The weight of the mice and tumor size were measured on the indicated day with a caliper and calculated based on the formula π/6 (length×depth×width). The evaluator was blinded to the group allocation during monitoring. Animals were sacrificed in the indicated dates, and tumors were harvested, weighed, and further processed for histopathological analysis. All experiments were performed under a Baylor College of Medicine Institutional Animal Care and Use Committee (IACUC)-approved protocol and all experiments confirm to IACUC standards and ethical regulations.
Next day the samples were sent to The Pathology and Histology Core of Baylor College of Medicine for further processing. The paraffin-embedded sections were stained with H&E, Ki-67, TUNEL and anti-cleaved caspase-3 using standard operating protocols.

[12] = test system: MDA-MB231 cells; assay: Caspase 3/7 activity assay, MDA-MB231; format: cell-based, human; settings: 2.5 μM overnight
Protocol: as §1

[13] = test system: MDA-MB231 cells; assay: MTS assay, MDA-MB231; format: cell-based, human
Protocol: as §3

[14] = test system: MDA-MB468 cells; assay: MTS assay, MDA-MB468; format: cell-based, human; settings: 5 h
Protocol: as §3

[15] = 40 mg/kg i.p. every three days for three doses

CC(=O)OCOC(=O)CN(CC(=O)OCOC(C)=O)Cc1cc2c(cc1OC(C)=O)Oc1cc(OC(C)=O)c(CN(CC(=O)OCOC(C)=O)CC(=O)OCOC(C)=O)cc1C21OC(=O)c2ccccc21 [Calcein AM, Calcein AM (acetoxymethyl ester)]
mice that developed tumors ([1]; 20 mg/kg i.p. every three days for three doses): none of the eight | mice that developed tumors [1, 15]: none of the four | apoptosis (caspase 3/7 activation) [2]: induced apoptosis | mammosphere formation [3]: blocked | Calcein AM response, viability assay ([4]; E2F1 depleted by two shRNA constructs, 2.5 μM, 20 h): attenuated | living cells compared with scrambled shRNA ([4]; p63- and p73-depleted cells, 2 μM, 15 h): more living cells | GI50 [5]: < 400 nM and 270 nM | apoptosis (caspase 3/7 activity) [6]: induced apoptosis | apoptosis (caspase 3/7 activity) ([6]; TopBP1-depleted HEK293 cells): could not induce more apoptosis | oral LD50 [7]: 14500 mg/kg | doxorubicin sensitivity (MTS) [8]: not | concentration at which inhibition of colony formation was apparent [9]: ≥ 0.1 µM | apparent toxicity in injected mice ([10]; 40 mg/kg): did not manifest any apparent toxicity | Ki-67 staining in intestinal epithelium ([10]; 40 mg/kg, 48 h after injection): did not decrease Ki-67 staining | apoptosis in intestinal epithelium ([10]; 40 mg/kg, 48 h after injection): nor did it induce apoptosis | tolerability of i.p. injections ([10]; throughout the course of treatment): appeared to tolerate | body weights of mice [11, 15]: without affecting body weights | expression of proliferation marker Ki-67 in xenografts [11, 15]: significantly inhibited | xenograft growth [11, 15]: significantly inhibited xenograft growth | immunohistochemistry of xenografts (Ki-67, TUNEL, cleaved caspase 3) ([11]; one week after the second injection): inhibition of proliferation and induction of apoptosis | tumor response to second round of treatment ([11]; regrown tumors, second round from day 61): responded to Calcein AM injection again | apoptosis (caspase 3/7 activity) [12]: induced apoptosis | anti-apoptotic activity of overexpressed TopBP1 (doxorubicin resistance) ([13]; AdTopBP1-infected cells, doxorubicin, Calcein AM 2.5 μM): blocked | proliferation (MTS) ([13]; increasing concentrations, 5 h, versus MCF10A): preferentially inhibited the proliferation | doxorubicin sensitivity (MTS) ([14]; TopBP1-depleted cells, 2.5 μM): failed to cast the same effect | doxorubicin sensitivity (MTS) ([14]; co-treated with doxorubicin, Calcein AM 2.5 μM): greatly enhanced the doxorubicin sensitivity | proliferation (MTS) ([14]; increasing concentrations, versus MCF10A): preferentially inhibited the proliferation | doxorubicin sensitivity (MTS) ([14]; shScr control cells, 2.5 μM): sensitized

Source: US9636323B2, “Method of treating cancer that overexpresses TopBP1” (Baylor College of Medicine, priority 2014, dated 2017)
